Laboratory results taken from patent publication US9452217B2, “Methods for potentiating immune response for the treatment of infectious diseases and cancer” (Nitor Therapeutics, priority 2013, dated 2016).

Experiments:
[1] = tested on: HCV; settings: chronically HCV infected patients; cited from earlier work
[2] = tested on: endogenous interferon-a (IFN-a); settings: healthy volunteers, oral; cited from earlier work
[3] = tested on: B16 tumors; test: Syngeneic mouse melanoma model; format: in vivo, C57BL/6 mice; settings: cyclophosphamide 100 mg/kg IP single dose; FIG. 6
Protocol: Method: Cancer cells were injected subcutaneously in right flank of each mouse, 1×10^4 cells in 0.1 ml PBS with 20% Matrigel. Treatment with the NTR001 was initiated on day 6 after injection of tumor cells. Tumor volume and survival were recorded every 3-4 days.

[4] = target: T1, human TLR4 (Homo sapiens, UniProt O00206+Q9Y6Y9); test: TLR ligand screening: NF-κB activation (SEAP reporter) in HEK293 cells expressing TLR4; format: cell-based; settings: one concentration: Guanosine 100 uM, NTR001 10 uM, Inosine 100 uM; FIG. 2
T1 construct: expressed in transfected cells; host or cells: HEK293
T1 sequence (O00206 24-839): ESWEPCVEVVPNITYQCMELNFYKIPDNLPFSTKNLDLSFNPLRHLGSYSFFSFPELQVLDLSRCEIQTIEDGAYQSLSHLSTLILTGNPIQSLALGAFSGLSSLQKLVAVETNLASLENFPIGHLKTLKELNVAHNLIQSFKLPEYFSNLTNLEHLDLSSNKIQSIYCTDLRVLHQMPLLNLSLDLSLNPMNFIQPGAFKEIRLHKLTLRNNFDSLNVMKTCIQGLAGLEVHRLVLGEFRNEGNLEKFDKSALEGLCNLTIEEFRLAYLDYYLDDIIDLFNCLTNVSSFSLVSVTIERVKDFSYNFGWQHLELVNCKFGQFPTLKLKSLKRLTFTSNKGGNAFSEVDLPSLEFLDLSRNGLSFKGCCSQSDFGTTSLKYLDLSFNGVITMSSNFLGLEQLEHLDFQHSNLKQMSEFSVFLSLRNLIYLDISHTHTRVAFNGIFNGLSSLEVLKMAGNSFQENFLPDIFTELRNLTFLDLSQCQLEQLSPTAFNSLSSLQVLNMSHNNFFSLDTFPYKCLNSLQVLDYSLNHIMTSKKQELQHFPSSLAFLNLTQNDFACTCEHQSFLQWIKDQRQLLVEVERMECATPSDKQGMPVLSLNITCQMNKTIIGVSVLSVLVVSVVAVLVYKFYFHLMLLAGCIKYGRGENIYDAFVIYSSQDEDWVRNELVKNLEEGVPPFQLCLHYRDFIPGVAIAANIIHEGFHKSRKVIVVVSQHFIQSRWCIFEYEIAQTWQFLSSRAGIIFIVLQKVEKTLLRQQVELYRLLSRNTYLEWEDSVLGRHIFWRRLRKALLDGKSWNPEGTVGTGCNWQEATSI
T1 sequence (Q9Y6Y9 17-160 limits assumed): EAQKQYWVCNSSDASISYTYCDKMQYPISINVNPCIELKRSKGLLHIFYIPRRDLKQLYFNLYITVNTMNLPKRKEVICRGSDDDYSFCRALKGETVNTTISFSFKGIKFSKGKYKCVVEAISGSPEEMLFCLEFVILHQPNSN
Protocol: (§1) Method: TLR stimulation is tested by assessing NF-κB activation in HEK293 cells expressing a given TLR. The Secreted Embryonic Alkaline Phosphatase (SEAP) reporter is under the control of a promoter inducible by the transcription factor NF-κB. This reporter gene allows the monitoring of signaling through the TLR, based on the activation of NF-κB. The compounds are evaluated at one concentration and compared to control ligands. This step is performed in triplicate.

[5] = target: T2, human TLR2 (Homo sapiens, UniProt O60603); test: TLR ligand screening: NF-κB activation (SEAP reporter) in HEK293 cells expressing TLR2; format: cell-based; settings: one concentration: Guanosine 100 uM, NTR001 10 uM, Inosine 100 uM; FIG. 2
T2 construct: expressed in transfected cells; host or cells: HEK293
T2 sequence (O60603 21-784): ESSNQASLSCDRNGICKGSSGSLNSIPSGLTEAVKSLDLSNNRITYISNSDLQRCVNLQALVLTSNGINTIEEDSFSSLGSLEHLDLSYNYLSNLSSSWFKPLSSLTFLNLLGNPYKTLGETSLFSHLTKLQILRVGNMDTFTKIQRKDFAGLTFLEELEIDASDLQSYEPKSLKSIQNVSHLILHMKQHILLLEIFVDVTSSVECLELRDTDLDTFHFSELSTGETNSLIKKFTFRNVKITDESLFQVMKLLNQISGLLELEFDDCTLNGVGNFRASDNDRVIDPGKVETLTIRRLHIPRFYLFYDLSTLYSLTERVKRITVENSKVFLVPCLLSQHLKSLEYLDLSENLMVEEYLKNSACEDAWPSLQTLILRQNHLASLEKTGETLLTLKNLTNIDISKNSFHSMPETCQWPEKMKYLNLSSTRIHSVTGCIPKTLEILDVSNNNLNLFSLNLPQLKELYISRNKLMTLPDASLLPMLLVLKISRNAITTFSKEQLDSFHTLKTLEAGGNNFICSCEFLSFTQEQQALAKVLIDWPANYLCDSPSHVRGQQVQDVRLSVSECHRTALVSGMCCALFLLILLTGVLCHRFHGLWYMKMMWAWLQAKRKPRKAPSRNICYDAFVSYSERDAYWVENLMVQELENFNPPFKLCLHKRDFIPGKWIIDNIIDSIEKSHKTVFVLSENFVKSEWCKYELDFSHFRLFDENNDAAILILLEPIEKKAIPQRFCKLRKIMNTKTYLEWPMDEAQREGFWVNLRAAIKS
Protocol: as §1

[6] = tested on: L. monocytogenes (ATCC Strain35152, hemolytic substrain); test: Mouse model of L. monocytogenes infection; settings: Balb/c mice infected i.v. with 1×10^6 CFU; 30 mg/kg PO or IP, 2 mg/kg drinking water; FIGS. 7 and 9
[7] = tested on: immune response to tetanus toxoid vaccine; test: PNPi as adjuvant in tetanus toxoid vaccine efficacy study (mouse); format: in vivo; settings: mice, p.o., ELISA

Q: What does the source list for `CC(=O)O[C@@H]1C[C@@H](CO)O[C@H]1n1c(=O)sc2cnc(N)nc21` [ANA773]?
A: HCV RNA [1]: dose dependent reduction; induction of endogenous interferon-a [2]: induction of endogenous interferon-a (IFN-a) of multiple subtypes

Q: With `O=P1(N(CCCl)CCCl)NCCCO1` (centres unmarked) [Cyclcophosphamide, cyclophosphamide] as the molecule, how does the survival [3] read?
A: 30%

Q: Which results are given for `Nc1nc2c(ncn2[C@@H]2O[C@H](CO)[C@@H](O)[C@H]2O)c(=O)[nH]1` [Guanosine]?
A: stimulatory effect on human TLR4 [4]: significant stimulatory effect; stimulatory effect on human TLR2 [5]: significant stimulatory effect

Q: For `O=c1[nH]cnc2c(CN3C[C@H](CO)[C@@H](O)C3)c[nH]c12` [NTR002, 1,5-dihydro-7-[[(3R,4R)-3-hydroxy-4-(hydroxymethyl)pyrrolidin-1-yl]methyl]-4H-pyrrolo [3,2-d]pyrimidin-4-one], which weight loss [6] is on record?
A: significant decrease in weight loss

Q: What about the “serum tetanus toxoid antibody titers compared to the vehicle treated group” value ([7]; 30 mg/kg (6 days of treatment) and 60 mg/kg (3 days of treatment), day 38, FIG. 3) of the same molecule?
A: significantly elevated

Q: What about the “serum interferon-g compared to the vehicle treated group” value ([7]; high dose group 60 mg/kg, day 30, FIG. 4) of the same molecule?
A: elevated
